Results on eight compounds are retold here after PMC5996983 (Environmental science & technology, 2017).

In one series the test system is Mycobacterium sp. PYR-1. The note with it: cited from earlier work.
The next series deals with Mycobacterium sp. A1-PYR. The note with it: cited from earlier work.
Series [1] concerns Mycobacterium sp. strain ELW1. As to the kind of experiment: PHE transformation by ELW1, resting cell tests.
The conditions of series [2]: 96-well plates ref 64; cited from earlier work.
For series [3] the following is noted: cited from earlier work.
The test system of series [4] is Mycobacterium sp. strains PYRGCK, JS19b1, czh-3, czh-117. The note with it: cited from earlier work.
A further series deals with Pasteurella spp. The conditions noted are these: cited from earlier work.
For series [5], the system named is embryonic zebrafish (Danio rerio). The experiment in a line: Embryonic zebrafish developmental toxicity bioassay. The note with it: for developmental toxicity to embryonic zebrafish: single compound standards, nominal 0.01 – 60 µM, exposure 6–120 hpf; for relative order of mean EC50: single standards, 120 hpf.
In the next series the test system is alkene monooxygenase. The experiment in a line: Inhibition of PHE transformation in ELW1 by 1-octyne. It counts as cell-based, Mycobacterium sp. strain ELW1. The note with it: ~7 µmol 1-octyne in the aqueous media.

In the case of `c1ccc2c(c1)ccc1ccccc12` [PHE, phenanthrene], the figures for the “non-normalized first-order rate of PHE transformation” value with Mycobacterium sp. PYR-1 and with Pasteurella spp. were -0.0015 h⁻¹ and -0.0005 h⁻¹, respectively. Also, the zero-order transformation rate was -0.019 µmol/h with Mycobacterium sp. A1-PYR and −0.0020 to −0.019 µmol hr^−1 in [4]. For the same compound, in [1] (1-octyne controls), the “first-order PHE transformation rate, kPHE” value was in the range of 0.015 to 0.10 h⁻¹. Further, the “half-life, t1/2” value in series [1] (1-octyne controls) fell in the range of 7.0 to 47 h; in series [1] (PHE-exposed cells) it was 1.4 to 4.3 h. In series [2], the “sorptive losses in test system” value is listed as “less than 10%”. In addition, in series [3], the water solubility was ~ 7 µM.

As for `Oc1cccc2c1ccc1ccccc12` [1-OHPHE, 1-hydroxyphenanthrene], in [5], the “developmental toxicity to embryonic zebrafish” value (“developmental toxicity” below) was “toxic” and the “relative order of mean EC50” value is “least toxic”.

On to `Oc1cccc2ccc3ccccc3c12` [4-OHPHE, 4-hydroxyphenanthrene], for which the “developmental toxicity” value in series [5] is given as “toxic”.

In the case of `Oc1ccc2ccc3ccccc3c2c1` [3-OHPHE, 3-hydroxyphenanthrene], in [5], the “developmental toxicity” value is reported as “toxic”.

Regarding `C#CCCCCCC` [1-Octyne, 1-octyne], the “inhibition of PHE degradation” value in the series on alkene monooxygenase is listed as “effectively, but not completely, inhibited”.

Take `Oc1cc2ccccc2c2ccccc12` [9-OHPHE, 9-hydroxyphenanthrene]: the “developmental toxicity” value in series [5] is on record as “toxic”.

Take `O[C@@H]1c2ccccc2-c2ccccc2[C@H]1O` (relative stereo) [trans-9,10-OHPHE, trans-9,10-dihydroxy-9,10-dihydrophenanthrene]: the “developmental toxicity” value in series [5] is “not toxic”.

As for `Oc1cc2c(O)cccc2c2ccccc12` [1,9-OHPHE, 1,9-dihydroxyphenanthrene], in [5], the “developmental toxicity” value was “toxic” and the “relative order of mean EC50” value is on record as “most toxic”.
